{"source": "paper PMC5522996", "about": "“Big conductance calcium‐activated potassium channel openers control spasticity without sedation” (British Journal of Pharmacology, 2017)", "key": {"[1]": {"test": "Plasma, brain and spinal cord levels in ABH mice with spastic EAE", "assay_type": "in vivo, mouse", "experimental": "The stability of compounds when subjected to hepatic and plasma degradation was assessed in vitro by Inpharmatica, Cambridge, UK. Compounds (1 μM) were incubated with either pooled mouse liver microsomes (0.1 mg protein mL^−1) or pooled mouse plasma at 37°C for 0, 5, 10, 20 and 40 min before termination with acetonitrile containing warfarin as an analytical internal standard. Samples were centrifuged, and the resultant supernatant analysed for parent compound. The mass responses at baseline were taken as the 100% reference values against which the disappearance of the compound was measured. The natural log of the % remaining values was used to generate linear plots of disappearance of the compounds. Half‐life values were calculated from the slope of these plots. Hepatocyte metabolism was assessed by Cyprotex, Macclesfield, and 10 μM VSN16R was incubated with primary mouse, rat, monkey (Macaque) and human hepatocytes for 1 h, and the presence of metabolites was assessed using liquid […] mass spectroscopy. The stability of VSN16R was assessed in vivo by Inpharmatica, Cyprotex and Charles Rivers, Cambridge. Blood (plasma) samples were obtained prior to and 5 min to 24 h after drug administration of 2–5 mg·kg^−1 i.v. or 5 mg·kg^−1 p.o. VSN16R into outbred mice and rats (n = 3 per time point). In addition, plasma, brain and spinal cord samples were obtained from ABH with spastic EAE. Immediately after blood collection, the brain and spinal cord were removed and then stored at −20°C prior to assay. Tissue samples were weighed, homogenized and centrifuged, and the lysates generated. Brain lysates and plasma were assayed by LC–MS methods by Inpharmatica/Charles Rivers, Cambridge, UK. This was also performed using a Waters Xevo TQ or API4000, AB Sciex mass spectrometer using spiked samples as standards. PK Solutions Software (Summit Research Services, Montrose, CO, USA), AB Sciex Analyst software combined with Thermo Fisher Scientific Watson LIMS processing and reporting software or WinNonLin pharmacokinetic or PK solutions 2.0 software (Summit Research Services, Montrose CO, USA) were used to produce PK parameters. Data are expressed as mean ± SEM. The detection limit of VSN16R was 2 ng·mL^−1 in plasma and brain and 14 ng·mL^−1 in spinal cords. The detection limit of VSN22R was 2 ng·mL^−1 in plasma and 0.1 ng·mL^−1 for VSN44R in plasma. Pharmacokinetics in toxicological samples in rats (n = 6 per group), dogs (n = 6 per group) and humans (n = 6 per group) were performed by Charles Rivers (Edinburgh, UK)."}, "healthy volunteers": {"tested_on": "healthy volunteers", "test": "Phase I safety study, adverse events", "assay_type": "in vivo, human"}, "Water solubility": {"test": "Water solubility", "assay_type": "physicochemical"}, "[2]": {"target": "T1, hCB2 Receptor (HEK293T.CNR2) (Homo sapiens, UniProt P34972)", "T1 construct": "expressed in transfected cells; host or cells: HEK293T", "T1 sequence (P34972 whole entry)": "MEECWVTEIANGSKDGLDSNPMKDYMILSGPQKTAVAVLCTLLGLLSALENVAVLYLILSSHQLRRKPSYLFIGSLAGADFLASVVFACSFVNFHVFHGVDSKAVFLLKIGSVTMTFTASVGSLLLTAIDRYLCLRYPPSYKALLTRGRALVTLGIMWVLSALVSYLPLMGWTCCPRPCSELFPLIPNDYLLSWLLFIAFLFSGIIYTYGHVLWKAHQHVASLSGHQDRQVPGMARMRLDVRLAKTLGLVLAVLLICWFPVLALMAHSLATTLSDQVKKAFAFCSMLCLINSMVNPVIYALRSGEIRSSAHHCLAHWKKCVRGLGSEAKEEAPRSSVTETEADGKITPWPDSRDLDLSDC", "test": "cAMP assay, HEK293T.CNR2", "assay_type": "cell-based", "settings": "max. tested 10μM"}, "TA100": {"tested_on": "TA100", "test": "Bacterial reverse mutation, revertants per plate", "assay_type": "cell-based, Salmonella typhimurium", "experimental": "(§1) Strain of Organism Treatment Dose Revertants per plate\n(§2) First Mutation without Metabolic Stimulation\n(§3) Second Mutation without Metabolic Stimulation\n(§4) VSN16R was incubated at various concentrations with either TA1535, TA1537, TA98 and TA100 strains of Salmonella typhimurium, which carry mutations in genes involved in histidine synthesis, and WP2uvvA Escherichia coli. The bacteria are spread on agar plates with limiting histidine content and incubated for 48 h. The number of histidine gene negative to positive revertants was assessed in two experiments. The results represent the mean ± SD. n=3/group. This was performed by Charles"}, "TA1535": {"tested_on": "TA1535", "test": "Bacterial reverse mutation, revertants per plate", "assay_type": "cell-based, Salmonella typhimurium", "experimental": "as §1, §2, §3, §4"}, "TA1537": {"tested_on": "TA1537", "test": "Bacterial reverse mutation, revertants per plate", "assay_type": "cell-based, Salmonella typhimurium", "experimental": "as §1, §2, §3, §4"}, "TA98": {"tested_on": "TA98", "test": "Bacterial reverse mutation, revertants per plate", "assay_type": "cell-based, Salmonella typhimurium", "experimental": "as §1, §2, §3, §4"}, "A1": {"target": "T2, A1 (Homo sapiens, UniProt P30542)", "T2 construct": "purchased Cerep; Chantest; DiscoveRx; Multispan; MDS Pharma Services", "T2 sequence (P30542 whole entry)": "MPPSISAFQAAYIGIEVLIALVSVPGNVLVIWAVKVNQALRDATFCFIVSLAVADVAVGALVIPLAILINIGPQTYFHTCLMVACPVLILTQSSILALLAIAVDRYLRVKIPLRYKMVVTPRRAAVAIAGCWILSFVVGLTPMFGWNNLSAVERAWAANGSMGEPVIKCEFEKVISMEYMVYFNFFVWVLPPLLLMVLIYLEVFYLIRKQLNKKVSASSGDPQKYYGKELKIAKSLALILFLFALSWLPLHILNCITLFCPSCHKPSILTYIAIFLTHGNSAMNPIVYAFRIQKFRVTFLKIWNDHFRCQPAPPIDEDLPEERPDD", "test": "Receptor binding profile of VSN16R", "settings": "10µM VSN16R"}, "CB1": {"target": "T3, CB1 (Homo sapiens, UniProt P21554)", "T3 construct": "purchased Cerep; Chantest; DiscoveRx; Multispan; MDS Pharma Services", "T3 sequence (P21554 whole entry)": "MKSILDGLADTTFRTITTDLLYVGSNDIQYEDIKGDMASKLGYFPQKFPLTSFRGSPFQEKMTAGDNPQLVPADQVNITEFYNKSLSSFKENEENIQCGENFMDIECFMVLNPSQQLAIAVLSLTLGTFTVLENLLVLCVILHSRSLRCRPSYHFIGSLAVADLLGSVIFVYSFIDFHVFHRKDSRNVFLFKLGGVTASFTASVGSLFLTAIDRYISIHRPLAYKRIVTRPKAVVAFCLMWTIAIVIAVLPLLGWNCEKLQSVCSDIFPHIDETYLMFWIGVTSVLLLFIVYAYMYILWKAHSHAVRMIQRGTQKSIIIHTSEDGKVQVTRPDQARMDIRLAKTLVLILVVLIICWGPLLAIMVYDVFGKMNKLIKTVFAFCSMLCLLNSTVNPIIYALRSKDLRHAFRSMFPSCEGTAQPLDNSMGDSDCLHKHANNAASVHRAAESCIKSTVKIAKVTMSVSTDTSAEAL", "test": "Receptor binding profile of VSN16R"}, "5-HT6": {"target": "T4, 5-HT6 (Homo sapiens, UniProt P50406)", "T4 construct": "purchased Cerep; Chantest; DiscoveRx; Multispan; MDS Pharma Services", "T4 sequence (P50406 whole entry)": "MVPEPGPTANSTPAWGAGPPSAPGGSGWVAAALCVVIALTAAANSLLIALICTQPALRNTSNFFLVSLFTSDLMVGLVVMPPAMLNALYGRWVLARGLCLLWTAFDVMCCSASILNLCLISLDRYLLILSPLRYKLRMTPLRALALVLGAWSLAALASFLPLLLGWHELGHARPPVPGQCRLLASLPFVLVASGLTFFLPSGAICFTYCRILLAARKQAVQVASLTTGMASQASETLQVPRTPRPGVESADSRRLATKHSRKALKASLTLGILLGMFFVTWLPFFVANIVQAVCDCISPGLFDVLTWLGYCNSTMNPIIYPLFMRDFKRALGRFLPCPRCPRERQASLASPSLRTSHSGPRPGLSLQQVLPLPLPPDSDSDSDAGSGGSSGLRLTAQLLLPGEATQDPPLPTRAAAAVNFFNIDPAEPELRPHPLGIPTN", "test": "Receptor binding profile of VSN16R", "settings": "10µM VSN16R"}, "sst(non-selective)": {"tested_on": "sst(non-selective)", "test": "Receptor binding profile of VSN16R", "parameters": "species or system human", "settings": "10µM VSN16R"}, "V1a": {"target": "T5, V1a (Homo sapiens, UniProt P37288)", "T5 construct": "purchased Cerep; Chantest; DiscoveRx; Multispan; MDS Pharma Services", "T5 sequence (P37288 whole entry)": "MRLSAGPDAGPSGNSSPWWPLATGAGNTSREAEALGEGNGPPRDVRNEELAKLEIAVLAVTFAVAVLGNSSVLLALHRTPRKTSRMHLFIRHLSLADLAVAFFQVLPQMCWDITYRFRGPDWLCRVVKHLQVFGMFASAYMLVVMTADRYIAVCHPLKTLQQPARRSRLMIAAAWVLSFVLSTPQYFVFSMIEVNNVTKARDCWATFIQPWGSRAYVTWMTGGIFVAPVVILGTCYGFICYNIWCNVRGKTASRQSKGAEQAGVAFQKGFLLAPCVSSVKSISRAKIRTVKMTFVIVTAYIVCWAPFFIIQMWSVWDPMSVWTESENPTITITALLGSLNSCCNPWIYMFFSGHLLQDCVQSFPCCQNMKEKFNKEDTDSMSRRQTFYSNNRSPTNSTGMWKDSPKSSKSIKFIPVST", "test": "Receptor binding profile of VSN16R", "settings": "10µM VSN16R"}, "[3]": {"tested_on": "Ca2+ channel (L verapamil site)", "test": "Receptor binding profile of VSN16R", "parameters": "species or system human", "settings": "10µM VSN16R"}, "[4]": {"target": "T6, fatty acid amide hydrolase (Homo sapiens, UniProt O00519)", "T6 construct": "purchased Cerep; Chantest; DiscoveRx; Multispan; MDS Pharma Services", "T6 sequence (O00519 whole entry)": "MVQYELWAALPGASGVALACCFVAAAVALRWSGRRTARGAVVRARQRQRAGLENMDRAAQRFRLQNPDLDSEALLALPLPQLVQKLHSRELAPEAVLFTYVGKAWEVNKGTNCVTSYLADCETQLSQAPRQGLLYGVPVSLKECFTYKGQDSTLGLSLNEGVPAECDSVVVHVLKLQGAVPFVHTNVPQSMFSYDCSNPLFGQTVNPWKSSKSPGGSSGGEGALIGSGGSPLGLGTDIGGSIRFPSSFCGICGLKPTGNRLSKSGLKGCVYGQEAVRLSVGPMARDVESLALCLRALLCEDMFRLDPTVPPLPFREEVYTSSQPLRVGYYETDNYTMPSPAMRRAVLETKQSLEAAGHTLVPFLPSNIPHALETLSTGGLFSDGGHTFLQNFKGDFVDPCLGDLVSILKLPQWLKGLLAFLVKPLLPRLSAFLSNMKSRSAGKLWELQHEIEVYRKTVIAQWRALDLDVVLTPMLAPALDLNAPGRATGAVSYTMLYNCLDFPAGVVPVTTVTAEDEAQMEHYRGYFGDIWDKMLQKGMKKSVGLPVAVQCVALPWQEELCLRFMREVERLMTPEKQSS", "test": "Receptor binding profile of VSN16R", "settings": "10µM VSN16R"}, "NE transporter": {"target": "T7, NE transporter (Homo sapiens, UniProt P23975)", "T7 construct": "purchased Cerep; Chantest; DiscoveRx; Multispan; MDS Pharma Services", "T7 sequence (P23975 whole entry)": "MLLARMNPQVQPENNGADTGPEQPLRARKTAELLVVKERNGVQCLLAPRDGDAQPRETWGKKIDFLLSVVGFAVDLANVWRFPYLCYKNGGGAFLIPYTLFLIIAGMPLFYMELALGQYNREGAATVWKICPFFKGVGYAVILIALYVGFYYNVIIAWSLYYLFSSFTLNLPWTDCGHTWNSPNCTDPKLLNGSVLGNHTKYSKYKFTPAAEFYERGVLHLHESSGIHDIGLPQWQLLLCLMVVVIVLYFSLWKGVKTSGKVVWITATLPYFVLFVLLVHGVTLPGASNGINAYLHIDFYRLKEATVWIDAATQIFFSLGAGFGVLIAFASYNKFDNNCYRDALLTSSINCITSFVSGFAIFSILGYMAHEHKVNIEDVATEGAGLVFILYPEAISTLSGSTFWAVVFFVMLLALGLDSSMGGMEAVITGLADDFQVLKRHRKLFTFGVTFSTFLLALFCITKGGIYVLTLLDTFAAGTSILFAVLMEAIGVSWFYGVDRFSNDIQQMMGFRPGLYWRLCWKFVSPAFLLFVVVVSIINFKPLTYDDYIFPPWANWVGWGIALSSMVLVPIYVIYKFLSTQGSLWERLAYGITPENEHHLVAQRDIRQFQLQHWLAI", "test": "Receptor binding profile of VSN16R", "settings": "10µM VSN16R"}, "[5]": {"settings": "First Mutation without Metabolic Stimulation, 17µg"}, "[6]": {"settings": "First Mutation without Metabolic Stimulation, 5000µg"}, "[7]": {"settings": "Second Mutation without Metabolic Stimulation, 17µg"}, "[8]": {"settings": "Second Mutation without Metabolic Stimulation, 5000µg"}}, "data": [{"smiles": "C[C@H](CO)NC(=O)c1cccc(/C=C\\CCCC(=O)N(C)C)c1", "note": "[VSN16R]", "values": [{"measurement": "Plasma level of the named species", "setting": "[1]; after 5 mg·kg^−1 p.o. VSN16R, ABH mice with spastic EAE", "result": "73.0 ± 6.1", "unit": "ng/mL"}, {"measurement": "Mice with drug detected in brains", "setting": "[1]; chronic EAE animals", "result": "4/4"}, {"measurement": "Mice with drug detected in spinal cords", "setting": "[1]; chronic EAE animals", "result": "2/4"}, {"measurement": "Mice with drug detected in brains", "setting": "[1]; normal animals", "result": "4/4"}, {"measurement": "Mice with drug detected in spinal cords", "setting": "[1]; normal animals", "result": "0/4"}, {"measurement": "Vomiting or issues of taste", "setting": "healthy volunteers; encapsulated drug, human studies", "result": "no vomiting or issues of taste were reported"}, {"measurement": "Sedation in humans", "setting": "healthy volunteers; in vivo", "result": "does not induce sedation"}, {"measurement": "Serious adverse events", "setting": "healthy volunteers; multiple ascending dose b.i.d.", "result": "no serious adverse events"}, {"measurement": "Subjects with a possible side effect of the treatment", "setting": "healthy volunteers; multiple ascending dose b.i.d., 3/18 subjects", "result": 16.7, "unit": "%"}, {"measurement": "Subjects reporting adverse events", "setting": "healthy volunteers; multiple ascending dose b.i.d., 6/18 subjects", "result": 33.3, "unit": "%"}, {"measurement": "Serious adverse drug‐related events", "setting": "healthy volunteers; single ascending dose", "result": "No serious adverse drug‐related events occurred"}, {"measurement": "Adverse events reported", "setting": "healthy volunteers; single ascending dose 25–800 mg", "result": 14.3, "unit": "%"}, {"measurement": "Subjects with a possible associated effect with treatment", "setting": "healthy volunteers; single ascending dose, 5/42 subjects", "result": 11.9, "unit": "%"}, {"measurement": "solubility", "setting": "Water solubility", "result": "> 30", "unit": "mg/mL"}, {"measurement": "Activity of VSN16R (Max. Tested)", "setting": "[2]", "result": "No Activity"}, {"measurement": "Revertants per plate", "setting": "TA100; [5]", "result": "79.3 ± 7.6"}, {"measurement": "Revertants per plate", "setting": "TA100; [6]", "result": "79.3 ± 5.5"}, {"measurement": "Revertants per plate", "setting": "TA100; [7]", "result": "85.7 ± 6.7"}, {"measurement": "Revertants per plate", "setting": "TA100; [8]", "result": "99.3 ± 5.5"}, {"measurement": "Revertants per plate", "setting": "TA1535; [5]", "result": "9.0 ± 6.6"}, {"measurement": "Revertants per plate", "setting": "TA1535; [6]", "result": "13.7 ± 2.1"}, {"measurement": "Revertants per plate", "setting": "TA1535; [7]", "result": "14.0 ± 5.6"}, {"measurement": "Revertants per plate", "setting": "TA1535; [8]", "result": "11.3 ± 3.5"}, {"measurement": "Revertants per plate", "setting": "TA1537; [5]", "result": "13.3 ± 1.5"}, {"measurement": "Revertants per plate", "setting": "TA1537; [6]", "result": "7.0 ± 1.7"}, {"measurement": "Revertants per plate", "setting": "TA1537; [7]", "result": "12.3 ± 2.9"}, {"measurement": "Revertants per plate", "setting": "TA1537; [8]", "result": "10.3 ± 2.9"}, {"measurement": "Revertants per plate", "setting": "TA98; [5]", "result": "15.3 ± 4.7"}, {"measurement": "Revertants per plate", "setting": "TA98; [6]", "result": "18.3 ± 7.1"}, {"measurement": "Revertants per plate", "setting": "TA98; [7]", "result": "23.3 ± 1.2"}, {"measurement": "Revertants per plate", "setting": "TA98; [8]", "result": "23.7 ± 1.2"}, {"measurement": "Activity", "setting": "A1", "result": "Negligible Activity"}, {"measurement": "Activity", "setting": "CB1; 10µM VSN16R", "result": "Negligible Activity"}, {"measurement": "Binding or agonism at CB1 receptors", "setting": "CB1; receptor‐transfected cell line‐based assays", "result": "does not bind to or agonize"}, {"measurement": "Activity", "setting": "5-HT6", "result": "Negligible Activity"}, {"measurement": "Activity", "setting": "sst(non-selective)", "result": "Negligible Activity"}, {"measurement": "Activity", "setting": "V1a", "result": "Negligible Activity"}, {"measurement": "Activity", "setting": "[3]", "result": "Negligible Activity"}, {"measurement": "Activity", "setting": "[4]", "result": "Negligible Activity"}, {"measurement": "Activity", "setting": "NE transporter", "result": "Negligible Activity"}]}]}
